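Cultured in 96-well plates, cells were exposed to test compound for 48 hours across five concentrations. Definition used: TGI = concentration required for complete inhibition of growth.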
Legend:
Experiment in all cases: NCI-60 cell line screen, 48 h
[1] = test system: NCI-H23 lung
[2] = test system: SF-539 CNS
[3] = test system: SR leukemia
[4] = test system: SNB-75 CNS
[5] = test system: NCI-H522 lung
[6] = test system: MDA-N
[7] = test system: RPMI-8226 leukemia
[8] = test system: MDA-MB-435
[9] = test system: DU-145 prostate
[10] = test system: UACC-62 melanoma
[11] = test system: OVCAR-4 ovarian
[12] = test system: ACHN renal
[13] = test system: NCI/ADR-RES ovarian
[14] = test system: OVCAR-3 ovarian
[15] = test system: HS 578T breast
[16] = test system: MALME-3M melanoma
[17] = test system: OVCAR-5 ovarian
[18] = test system: MOLT-4 leukemia
[19] = test system: SW-620 colon
[20] = test system: OVCAR-8 ovarian
[21] = test system: UO-31 renal
[22] = test system: CCRF-CEM leukemia
[23] = test system: SF-268 CNS
[24] = test system: HT29 colon
[25] = test system: KM12 colon
[26] = test system: HOP-62 NSCLC
[27] = test system: HL-60(TB) leukemia
[28] = test system: SK-OV-3 ovarian
[29] = test system: NCI-H460 lung
[30] = test system: IGROV1 ovarian
[31] = test system: A498 renal
[32] = test system: NCI-H226 lung
[33] = test system: SNB-19 CNS
[34] = test system: MCF7 breast
[35] = test system: MDA-MB-231 breast
[36] = test system: SK-MEL-28 melanoma
[37] = test system: 786-0 renal
[38] = test system: UACC-257 melanoma
[39] = test system: SK-MEL-2 melanoma
[40] = test system: TK-10 renal
[41] = test system: SF-295 CNS
[42] = test system: SK-MEL-5 melanoma
[43] = test system: A549 NSCLC
[44] = test system: K-562 leukemia
[45] = test system: HOP-92 NSCLC
[46] = test system: HCT-116 colon
[47] = test system: EKVX NSCLC
[48] = test system: M14 melanoma
[49] = test system: T-47D breast
[50] = test system: U251 CNS
[51] = test system: CAKI-1 renal
[52] = test system: HCT-15 colon
[53] = test system: RXF 393 renal
[54] = test system: COLO 205 colon
[55] = test system: BT-549 breast
[56] = test system: PC-3 prostate
[57] = test system: SN12C renal
[58] = test system: LOX IMVI melanoma

Measured: TGI

N#CC(C#N)=Cc1c[nH]c(=O)[nH]c1=O
63.9 µM: [22]
> 100 µM: [1] | [2] | [3] | [4] | [5] | [6] | [7] | [8] | [9] | [10] | [11] | [12] | [13] | [14] | [15] | [16] | [17] | [18] | [19] | [20] | [21] | [23] | [24] | [25] | [26] | [27] | [28] | [29] | [30] | [31] | [32] | [33] | [34] | [35] | [36] | [37] | [38] | [39] | [40] | [41] | [42] | [43] | [44] | [45] | [46] | [47] | [48] | [49] | [50] | [51] | [52] | [53] | [54] | [55] | [56] | [57] | [58]

COc1cc(-c2nc3ccc(N4CCN(C)CC4)cc3[nH]2)c(OC)c2[nH]c(CO)nc12
44.5 µM: [22]
> 100 µM: [1] | [2] | [3] | [4] | [5] | [6] | [7] | [8] | [9] | [10] | [11] | [12] | [13] | [14] | [15] | [16] | [17] | [18] | [19] | [20] | [21] | [23] | [24] | [25] | [26] | [28] | [29] | [30] | [31] | [32] | [33] | [34] | [35] | [36] | [37] | [38] | [39] | [40] | [41] | [42] | [43] | [44] | [45] | [46] | [47] | [48] | [49] | [50] | [51] | [52] | [53] | [54] | [55] | [56] | [57] | [58]
37.2 µM: [27]

Reference: PubChem BioAssay (NCI)
